Laboratory results reported in patent US8298996B2, “Low toxicity shale hydration inhibition agent and method of use” (M-I L.L.C., priority 2007, dated 2012).
Like-named read-outs stand apart in the source and are kept apart here.

Legend:
[1] = for 10′ Gel / Viscosity (cps) at 3 rpm / YP: after hot rolled at 150° F., about 10 ppb inhibitor in tap water; for shale inhibiting characteristics: summary of Tables 6-9
Method: This test procedure uses pint jars that are filled with one barrel equivalent of tap water and about 10 ppb of a shale inhibitor. Tap water was used as a control sample. […] After stirring the samples for about 30 minutes, the rheologies were measured and then the samples were heat aged overnight at about 150° F. After the samples were cooled the rheologies were measured and recorded. This procedure was carried out for each sample until all of the samples were too thick to measure.

[2] = tested on: luminescent bacteria; conditions: for EC50 (15): reduces light emission by 50% at 15 minutes at 15° C.; for toxicity results: summary of Tables 6-9

Question: With `[Cl-].[K+]` [Potassium Chloride, reference compound] as the molecule, how does the “10′ Gel” value ([1]; 50 ppb Bentonite) read?
Answer: 26

Question: What about the “Viscosity (cps) at 3 rpm” value ([1]; 50 ppb Bentonite) of the same molecule?
Answer: 12 cps

Question: And the YP ([1]; 50 ppb Bentonite)?
Answer: 9

Question: What about the “10′ Gel” value ([1]; 60 ppb Bentonite) of the same molecule?
Answer: 63

Question: And the “Viscosity (cps) at 3 rpm” value ([1]; 60 ppb Bentonite)?
Answer: 48 cps

Question: What about the YP ([1]; 60 ppb Bentonite) of the same molecule?
Answer: 45

Question: And the “10′ Gel” value ([1]; 70 ppb Bentonite)?
Answer: 300

Question: What about the “Viscosity (cps) at 3 rpm” value ([1]; 70 ppb Bentonite) of the same molecule?
Answer: 143 cps

Question: What about the YP ([1]; 70 ppb Bentonite) of the same molecule?
Answer: 136

Question: Which “10′ Gel” value ([1]; 50 ppb Bentonite) does the source give for Triethylamine Diethyl Sulfate here?
Answer: 7

Question: What about the “Viscosity (cps) at 3 rpm” value ([1]; 50 ppb Bentonite) of the same molecule?
Answer: 4 cps

Question: And the YP ([1]; 50 ppb Bentonite)?
Answer: 6

Question: What about the “10′ Gel” value ([1]; 60 ppb Bentonite) of the same molecule?
Answer: 9

Question: And the “Viscosity (cps) at 3 rpm” value ([1]; 60 ppb Bentonite)?
Answer: 4 cps

Question: And the YP ([1]; 60 ppb Bentonite)?
Answer: 8

Question: What about the “10′ Gel” value ([1]; 70 ppb Bentonite) of the same molecule?
Answer: 14

Question: What about the “Viscosity (cps) at 3 rpm” value ([1]; 70 ppb Bentonite) of the same molecule?
Answer: 8 cps

Question: And the YP ([1]; 70 ppb Bentonite)?
Answer: 45

Question: And the shale inhibiting characteristics [1]?
Answer: good

Question: And the “EC50 (15)” value [2]?
Answer: 100%

Question: And the toxicity results [2]?
Answer: good

Question: For “Triethylamine Dimethyl Sulfate [A (Triethylamine Dimethyl Sulfate)]”, which “10′ Gel” value ([1]; 50 ppb Bentonite) is on record?
Answer: 3

Question: What about the “Viscosity (cps) at 3 rpm” value ([1]; 50 ppb Bentonite) of the same molecule?
Answer: 2 cps

Question: And the YP ([1]; 50 ppb Bentonite)?
Answer: 4

Question: What about the “10′ Gel” value ([1]; 60 ppb Bentonite) of the same molecule?
Answer: 4

Question: What about the “Viscosity (cps) at 3 rpm” value ([1]; 60 ppb Bentonite) of the same molecule?
Answer: 3 cps

Question: What about the YP ([1]; 60 ppb Bentonite) of the same molecule?
Answer: 4

Question: What about the “10′ Gel” value ([1]; 70 ppb Bentonite) of the same molecule?
Answer: 17

Question: What about the “Viscosity (cps) at 3 rpm” value ([1]; 70 ppb Bentonite) of the same molecule?
Answer: 12 cps

Question: And the YP ([1]; 70 ppb Bentonite)?
Answer: 48

Question: And the shale inhibiting characteristics [1]?
Answer: good

Question: What about the “EC50 (15)” value [2] of the same molecule?
Answer: 92.16%

Question: What about the toxicity results [2] of the same molecule?
Answer: good
